# Data from patent US6423689B1, “Peptidyl calcium channel blockers” (Warner-Lambert Company, priority 1997, dated 2002).
# How the values were obtained:
# [1] = system: K+ channels in superior cervical ganglion (SCG) neurons; test: Whole-cell voltage clamp, K+ current in SCG neurons; format: cell-based, rat
# Procedure: (§1) Electrophysiological techniques were used to measure the effects of experimental compounds on voltage-gated Ca^2+, Na^+ and K^+ channels. […] Sodium and potassium channel currents were measured from acutely dissociated SCG neurons.
# (§2) Dissociation of the neurons from the ganglia was accomplished using a 30 to 45 minute treatment in 0.25% trypsin, similar to methods outlined in Higgins, et al. [see Higgins D., et al. “Tissue culture of mammalian autonomic neurons.” In Banker G. and Goslin K. (Eds), Culturing Nerve Cells, Cambridge, Mass., MIT Press (1991)].
# (§3) Ca^2+, Na^+ and K^+ channel currents in SCG neurons were measured using conventional single electrode whole-cell voltage-clamp techniques, outlined in Hamill, et al., (see Hamill O.P., et al. “Improved patch-clamp techniques for high resolution current recordings from cells and cell-free membrane patches”. Pflugers Arch. 1981;391:85-100) For Ca^2+ channel experiments, the external bathing solution contained tetraethylammonium chloride (100 mM), choline chloride (52 mM), NaCl (15 mM), HEPES (10 mM), glucose (5.6 mM), CaCl2 (2 mM), and MgCl2 (0.8 mM) pH 7.35 with KOH; with the internal pipette solution containing cesium methane sulfonate (140 mM), EGTA (10 mM), and HEPES (10 mM), supplemented with 5 mM Mg^2+ -ATP on the day of the experiment, pH 7.4 with CsOH. For Na^+ and K^+ channel experiments, the external bathing solution contained NaCl (150 mM), KCl (5 mM), MgCl2 (1.1 mM), CaCl2 (2.6 mM), Na-HEPES (10 mM), and glucose (10 mM), pH 7.4; with the internal pipette solution containing KCl (80 mM), K-gluconate (50 mM), HEPES (10 mM), and EGTA (10 mM), pH 7.4 with KOH. Experimental compounds were diluted into the external solution and applied to the soma of cells by local perfusion from large diameter (20-50 μm) glass micropipettes or from a U-tube applicator.
# (§4) For Na^+ and K^+ channel currents, following the determination of the I/V relationship for each cell in control solution, currents were evoked from a holding potential between −65 and −55 mV by stepping every 10 sec to a test potential of either 0 mV for Na^+ or +50 mV for K^+ current for a duration of 35 msec. Peak inward current was measured for Na^+ and sustained current for K^+ channel currents. […] Test compounds were applied until steady-state block was achieved. Data were expressed as percent inhibition of control amplitudes for Na^+ and K^+ channel currents.
# [2] = molecular target: T1, N-type Ca2+ channels in superior cervical ganglion (SCG) neurons (Rattus norvegicus, UniProt Q02294); test: Whole-cell voltage clamp, N-type Ca2+ current in SCG neurons; format: cell-based
# T1 construct: from tissue
# Procedure: as §1, §2, §3
# After obtaining a whole-cell recording, Ca^2+ channels were elicited by stepping to test potentials between −40 and +20 mV for 120 msec from the holding potential of −90 mV to determine if the amplitude of the current and clamp control were adequate for evaluation of drug effects. Ca^2+ channel currents were evoked by stepping from a holding potentials between −65 mV and −−55 mV to a test potential of +20 mV for 150 msec every 40 seconds. The amplitude of the Ca^2+ channel currents were compared before and during drug application and drug effects expressed as percent inhibition of the amplitude of control currents.
# [3] = molecular target: T2, N-type Ca2+ channels in IMR-32 cells (Homo sapiens, UniProt Q00975); test: Inhibition of N-type calcium flux in IMR-32 cells (Indo-1 fluorescence, nitrendipine present); format: cell-based; details: for IC50: IMR-32 cells, 5 μM nitrendipine, K+ depolarization
# T2 construct: host or cells: IMR-32 cells, differentiated with dibutyryl cAMP and bromodeoxyuridine
# Method in brief: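 Differentiated IMR-32 cells (7–13 days) were loaded with 5 μM Indo-1 AM, preincubated with compound for 10 min at 30° C, and depolarized with KCl/CaCl2 stimulation solution, with 5 μM nitrendipine blocking L-channels. Peak-minus-basal 400/490 nm emission ratio was plotted against drug concentration, and IC50 came from four-parameter logistic fits.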
# [4] = system: Na+ channels in superior cervical ganglion (SCG) neurons; test: Whole-cell voltage clamp, Na+ current in SCG neurons; format: cell-based, rat
# Procedure: as §1, §2, §3, §4
# T2 sequence (Q00975 whole entry): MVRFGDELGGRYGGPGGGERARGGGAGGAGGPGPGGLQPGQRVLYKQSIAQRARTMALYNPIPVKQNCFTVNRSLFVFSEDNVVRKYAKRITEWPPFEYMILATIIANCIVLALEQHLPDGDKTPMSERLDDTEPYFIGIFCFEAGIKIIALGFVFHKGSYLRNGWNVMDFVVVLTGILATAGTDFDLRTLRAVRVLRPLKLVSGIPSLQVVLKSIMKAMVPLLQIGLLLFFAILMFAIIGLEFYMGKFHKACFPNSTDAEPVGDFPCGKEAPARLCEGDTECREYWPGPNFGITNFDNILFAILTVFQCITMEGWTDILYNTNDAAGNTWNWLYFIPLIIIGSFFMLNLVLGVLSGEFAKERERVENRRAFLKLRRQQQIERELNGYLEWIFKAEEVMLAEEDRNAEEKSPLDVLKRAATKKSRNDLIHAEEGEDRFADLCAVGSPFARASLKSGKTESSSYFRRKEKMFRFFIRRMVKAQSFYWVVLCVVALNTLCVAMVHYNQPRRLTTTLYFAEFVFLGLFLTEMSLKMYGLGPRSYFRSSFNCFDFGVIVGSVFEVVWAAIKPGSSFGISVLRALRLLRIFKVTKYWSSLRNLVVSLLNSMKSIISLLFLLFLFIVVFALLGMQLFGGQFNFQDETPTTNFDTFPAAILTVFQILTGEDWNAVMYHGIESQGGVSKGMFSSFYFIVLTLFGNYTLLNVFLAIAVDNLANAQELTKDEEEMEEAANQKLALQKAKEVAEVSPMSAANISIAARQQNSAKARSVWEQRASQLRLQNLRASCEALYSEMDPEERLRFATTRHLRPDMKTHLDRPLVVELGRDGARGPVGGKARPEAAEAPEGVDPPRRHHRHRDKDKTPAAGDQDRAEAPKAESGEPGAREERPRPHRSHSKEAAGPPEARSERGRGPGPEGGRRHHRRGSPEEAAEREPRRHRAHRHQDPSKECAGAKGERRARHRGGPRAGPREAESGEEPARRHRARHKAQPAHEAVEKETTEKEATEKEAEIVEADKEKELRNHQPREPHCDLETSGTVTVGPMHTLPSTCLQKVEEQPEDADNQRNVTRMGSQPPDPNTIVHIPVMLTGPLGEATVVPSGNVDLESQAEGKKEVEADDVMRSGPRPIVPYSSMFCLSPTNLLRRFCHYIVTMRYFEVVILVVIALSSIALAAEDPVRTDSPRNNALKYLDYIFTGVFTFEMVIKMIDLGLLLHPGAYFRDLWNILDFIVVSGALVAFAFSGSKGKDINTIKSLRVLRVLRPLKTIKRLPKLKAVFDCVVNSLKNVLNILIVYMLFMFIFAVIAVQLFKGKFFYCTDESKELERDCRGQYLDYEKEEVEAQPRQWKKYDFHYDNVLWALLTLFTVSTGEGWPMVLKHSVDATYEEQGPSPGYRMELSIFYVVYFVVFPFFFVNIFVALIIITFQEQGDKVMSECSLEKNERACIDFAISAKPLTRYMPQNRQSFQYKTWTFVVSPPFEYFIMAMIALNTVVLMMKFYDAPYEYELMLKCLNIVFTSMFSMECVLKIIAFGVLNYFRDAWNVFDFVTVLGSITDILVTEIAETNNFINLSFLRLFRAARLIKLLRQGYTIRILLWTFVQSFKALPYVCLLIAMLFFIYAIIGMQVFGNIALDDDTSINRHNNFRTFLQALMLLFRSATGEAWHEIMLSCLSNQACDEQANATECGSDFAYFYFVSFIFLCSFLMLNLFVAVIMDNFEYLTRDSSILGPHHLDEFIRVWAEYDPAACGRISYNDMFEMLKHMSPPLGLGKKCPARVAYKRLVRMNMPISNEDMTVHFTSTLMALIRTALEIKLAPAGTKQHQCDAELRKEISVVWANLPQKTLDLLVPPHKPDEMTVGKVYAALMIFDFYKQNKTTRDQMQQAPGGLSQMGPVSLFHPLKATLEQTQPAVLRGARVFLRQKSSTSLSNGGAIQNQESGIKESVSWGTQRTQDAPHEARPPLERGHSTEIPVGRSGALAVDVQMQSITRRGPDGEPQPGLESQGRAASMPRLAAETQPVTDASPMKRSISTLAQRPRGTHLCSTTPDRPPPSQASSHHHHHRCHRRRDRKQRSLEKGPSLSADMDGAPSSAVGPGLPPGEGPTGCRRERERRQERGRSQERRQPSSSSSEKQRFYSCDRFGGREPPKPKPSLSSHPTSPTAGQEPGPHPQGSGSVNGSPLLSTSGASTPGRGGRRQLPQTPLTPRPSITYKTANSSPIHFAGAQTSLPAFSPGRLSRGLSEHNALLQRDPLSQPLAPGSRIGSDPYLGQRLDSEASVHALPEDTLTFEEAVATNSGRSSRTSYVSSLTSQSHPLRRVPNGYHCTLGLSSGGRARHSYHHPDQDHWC
# T2 sequence (P54289 25-956 partner limits assumed): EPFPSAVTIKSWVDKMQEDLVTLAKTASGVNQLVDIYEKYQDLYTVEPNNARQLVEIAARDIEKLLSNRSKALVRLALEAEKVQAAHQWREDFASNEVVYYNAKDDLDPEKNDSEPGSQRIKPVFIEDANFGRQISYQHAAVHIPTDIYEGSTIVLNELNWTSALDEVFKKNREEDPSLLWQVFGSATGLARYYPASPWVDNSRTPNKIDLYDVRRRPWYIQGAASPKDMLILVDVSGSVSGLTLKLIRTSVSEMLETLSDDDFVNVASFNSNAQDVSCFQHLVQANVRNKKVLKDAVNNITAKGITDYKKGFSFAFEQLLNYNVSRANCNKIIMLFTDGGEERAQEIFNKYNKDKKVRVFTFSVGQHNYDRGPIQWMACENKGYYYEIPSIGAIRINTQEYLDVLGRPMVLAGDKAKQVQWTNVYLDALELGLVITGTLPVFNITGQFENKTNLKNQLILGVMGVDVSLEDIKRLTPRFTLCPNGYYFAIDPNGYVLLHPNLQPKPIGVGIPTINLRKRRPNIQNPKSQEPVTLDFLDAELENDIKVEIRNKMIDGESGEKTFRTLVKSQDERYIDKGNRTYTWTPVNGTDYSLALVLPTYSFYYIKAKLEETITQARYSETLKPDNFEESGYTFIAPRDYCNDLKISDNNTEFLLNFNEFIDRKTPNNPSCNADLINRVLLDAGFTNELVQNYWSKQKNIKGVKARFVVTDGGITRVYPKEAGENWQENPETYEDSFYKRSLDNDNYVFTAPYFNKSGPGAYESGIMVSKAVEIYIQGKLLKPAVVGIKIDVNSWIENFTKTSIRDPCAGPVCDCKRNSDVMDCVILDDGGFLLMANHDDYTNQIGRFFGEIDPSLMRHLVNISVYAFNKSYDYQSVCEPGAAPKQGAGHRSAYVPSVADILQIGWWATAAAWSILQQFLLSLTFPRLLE
# T2 sequence (P54289 957-1103 partner limits assumed): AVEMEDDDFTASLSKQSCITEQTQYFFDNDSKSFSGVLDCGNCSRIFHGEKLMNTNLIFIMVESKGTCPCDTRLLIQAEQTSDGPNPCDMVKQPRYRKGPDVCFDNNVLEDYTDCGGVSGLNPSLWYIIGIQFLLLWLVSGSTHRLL
# T2 sequence (P54284 whole entry partner): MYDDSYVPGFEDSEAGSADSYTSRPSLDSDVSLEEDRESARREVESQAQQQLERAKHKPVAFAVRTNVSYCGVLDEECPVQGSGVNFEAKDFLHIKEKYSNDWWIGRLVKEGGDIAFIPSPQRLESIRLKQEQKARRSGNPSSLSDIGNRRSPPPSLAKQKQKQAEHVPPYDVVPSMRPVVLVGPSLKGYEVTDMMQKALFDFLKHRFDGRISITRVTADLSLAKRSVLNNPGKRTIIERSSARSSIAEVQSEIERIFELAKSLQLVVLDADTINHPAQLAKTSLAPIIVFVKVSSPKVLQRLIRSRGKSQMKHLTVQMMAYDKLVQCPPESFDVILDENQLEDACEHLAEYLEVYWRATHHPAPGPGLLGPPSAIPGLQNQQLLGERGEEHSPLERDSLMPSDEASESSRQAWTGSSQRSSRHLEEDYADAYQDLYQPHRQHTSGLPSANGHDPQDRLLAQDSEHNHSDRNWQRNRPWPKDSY
"Inhibition of N-type Ca2+ Current, % Inhibition at 10 μM [2] [%]",Inhibition of Calcium Flux in IMR-32 Cells % Inhibition at 1 μM [3] [%],IC50 [3] [nM],Compound,"Inhibition of K+ Current, % Inhibition at 10 μM [1] [%]","Inhibition of Na+ Current, % Inhibition at 10 μM [4] [%]",also measured
45,77,270,"CCCCNC(=S)N[C@@H](CC(C)C)C(=O)N[C@@H](Cc1ccc(OCc2ccccc2)cc1)C(=O)OC(C)(C)C (relative stereo) [Example 49, [S-(R*,R*)]-3-(4-Benzyloxy-phenyl)-2-[2-(3-butyl-thioureido)-4-methyl-pentanoylamino]-propionic acid tert-butyl ester]",−3,6,Inhibition of Calcium Flux in IMR-32 Cells % Inhibition at 10 μM [3]: 99%
−7,,,"CC(C)C[C@H](NC(=O)c1ccccc1)C(=O)N[C@@H](Cc1ccc(OCc2ccccc2)cc1)C(=O)OC(C)(C)C (relative stereo) [Example 130, [S-(R*,R*)]-2-(2-Benzoylamino-4-methyl-pentanoylamino)-3-(4-benzyloxy-phenyl)-propionic acid tert-butyl ester]",,,Inhibition of Calcium Flux in IMR-32 Cells % Inhibition at 10 μM [3]: 78%
81,55,820,"CC(C)C[C@H](NC(=O)N1CCCCCC1)C(=O)N[C@@H](Cc1ccc(OCc2ccccc2)cc1)C(=O)N1CCN(Cc2ccccc2)CC1 (relative stereo) [Example 180, [S-(R*,R*)]-Azepane-1-carboxylic acid {1-[1-(4-benzyloxy-benzyl)-2-(4-benzyl-piperazin-1-yl)-2-oxo-ethylcarbamoyl]-3-methyl-butyl}-amide]",60,20,
,,2800,"CC(C)C[C@H](NC(=O)N1CCCCCC1)C(=O)N[C@@H](Cc1ccc(OCc2ccccc2)cc1)C(=O)Nc1cccc(O)c1 [Example 269, [S-(R*,R*)]-Azepane-1-carboxylic acid {1-[2-(4-benzyloxy-phenyl)-1-(3-hydroxy-phenylcarbamoyl)-ethylcarbamoyl]-3-methyl-butyl}-amide]",,,
,,840,"CC(C)C[C@H](NC(=O)N1CCCCCC1)C(=O)N[C@@H](Cc1ccc(OCc2ccccc2)cc1)C(=O)NC1CCN(Cc2ccccc2)CC1 [Example 271, [S-(R*,R*)]-Azepane-1-carboxylic acid {1-[2-(4-benzyloxy-phenyl)-1-(1-benzyl-piperidin-4-ylcarbamoyl)-ethylcarbamoyl]-3-methyl-butyl}-amide]",,,inhibition at 1 µM ([3]; IMR-32): 70%

# Continued, molecule first:
Compound,"Inhibition of N-type Ca2+ Current, % Inhibition at 10 μM [2] [%]",Inhibition of Calcium Flux in IMR-32 Cells % Inhibition at 1 μM [3] [%],IC50 [3] [nM],"Inhibition of K+ Current, % Inhibition at 10 μM [1] [%]","Inhibition of Na+ Current, % Inhibition at 10 μM [4] [%]",also measured
"C[C@H](NC(=O)N1CCCCCC1)C(=O)N[C@@H](Cc1ccc(OCc2ccccc2)cc1)C(=O)OC(C)(C)C (relative stereo) [Example 7, [S-(R*,R*)]-2-{2-[(Azepane-1-carbonyl)-amino]-propionylamino}-3-(4-benzyloxy-phenyl)-propionic acid tert-butyl ester]",81,44,1500,70,52,IC50 ([2]; read-out: Inhibition of N-type Ca2+ Current IC50): 2300 nM; Inhibition of Calcium Flux in IMR-32 Cells % Inhibition at 10 μM [3]: 96%
"CC(C)C[C@H](NC(=O)N1CCN(C)CC1)C(=O)N[C@@H](Cc1ccc(OCc2ccccc2)cc1)C(=O)OC(C)(C)C (relative stereo) [Example 9, [S-(R*,R*)]-3-(4-Benzyloxy-phenyl)-2-{4-methyl-2-[(4-methyl-piperazine-1-carbonyl)-amino]-pentanoylamino}-propionic acid tert-butyl ester]",81,28,,61,44,
"CC(C)C[C@H](NS(=O)(=O)c1ccc([N+](=O)[O-])cc1)C(=O)N[C@@H](Cc1ccc(OCc2ccccc2)cc1)C(=O)OC(C)(C)C (relative stereo) [Example 39, [S-(R*,R*)]-3-(4-Benzyloxy-phenyl)-2-[4-methyl-2-(4-nitro-benzenesulfonylamino)-pentanoylamino]-propionic acid tert-butyl ester]",,61,520,22,28,Inhibition of Calcium Flux in IMR-32 Cells % Inhibition at 10 μM [3]: 91%
"CC(C)(C)NC(=O)[C@H](Cc1ccc(OCc2ccccc2)cc1)NC(=O)[C@@H]1CC2CCCCC2N1C(=O)N1CCCCCC1 (relative stereo) [Example 161, [S-(R*,R*)]-1-(Azepane-1-carbonyl)-octahydro-indole-2-carboxylic acid [2-(4-benzyloxy-phenyl)-1-tert-butylcarbamoyl-ethyl]-amide]",61,,2500,68,42,IC50 ([1]; read-out: Inhibition of K+ Current IC50): 5450 nM; IC50 ([4]; read-out: Inhibition of Na+ Current IC50): 14000 nM
"CC(C)C[C@H](NC(=O)N1CCCCCC1)C(=O)N[C@H](Cc1ccc(OCc2ccccc2)cc1)C(=O)OC(C)(C)C [Example 2, 2(R)-{2(S)-[(Azepane-1-carbonyl)-amino]-4-methyl-pentanoylamino}-3-(4-benzyloxy-phenyl)-propionic acid tert-butyl ester]",,,1700,41,35,inhibition at 10 µM [2]: 32%; inhibition at 1 µM ([3]; IMR-32): 38%; inhibition at 10 µM ([3]; IMR-32): 90%
"CC(C)C[C@H](NC(=O)N1CCCCCC1)C(=O)N[C@@H](Cc1ccc(OCc2ccccc2)cc1)C(=O)NCCc1ccco1 [Example 174, [S-(R*,R*)]-Azepane-1-carboxylic acid {1-[2-(4-benzyloxy-phenyl)-1-(2-furan-2-ylethylcarbamoyl)-ethylcarbamoyl]-3-methyl-butyl}-amide]",,,1400,32,14,
"CC(C)C[C@H](NC(=O)N1CCCCCC1)C(=O)N[C@@H](Cc1ccc(OCc2ccccc2)cc1)C(=O)N[C@H]1CCN(Cc2ccccc2)C1 [Example 194, Azepane-1-carboxylic acid {(S)-1-[(S)-2-(4-benzyloxy-phenyl)-1-[1-benzyl-(S)-pyrrolidin-3-ylcarbamoyl]-ethylcarbamoyl]-3-methyl-butyl}-amide]",,,450,,,inhibition at 10 µM [2]: 84%
"Cc1cc(NC(=O)[C@H](Cc2ccc(OCc3ccccc3)cc2)NC(=O)[C@H](CC(C)C)NC(=O)N2CCCCCC2)c(C)cc1O [Example 267, [S-(R*,R*)]-Azepane-1-carboxylic acid {1-[2-(4-benzyloxy-phenyl)-1-(4-hydroxy-2,5-dimethyl-phenylcarbamoyl)-ethylcarbamoyl]-3-methyl-butyl}-amide]",,,4400,,,
"CC(C)C[C@H](NC(=O)N1CCCCCC1)C(=O)N[C@@H](Cc1ccc(OCc2ccccc2)cc1)C(=O)NCCCN1CCCC1 [Example 268, [S-(R*,R*)]-Azepane-1-carboxylic acid {1-[2-(4-benzyloxy-phenyl)-1-(3-pyrrolidin-1-yl-propylcarbamoyl)-ethylcarbamoyl]-3-methyl-butyl}-amide]",,,2900,,,
"CC(C)C[C@H](NC(=O)N1CCCCCC1)C(=O)N[C@@H](Cc1ccc(OCc2ccccc2)cc1)C(=O)N1CCN(C(c2ccccc2)c2ccccc2)CC1 [Example 270, [S-(R*,R*)]-Azepane-1-carboxylic acid {1-[2-(4-benzhydryl-piperazin-1-yl)-1-(4-benzyloxy-benzyl)-2-oxo-ethylcarbamoyl]-3-methyl-butyl}-amide]",,,1200,,,
